What was measured:
NCI/ADR-RES = experiment: NCI 60 cell line five dose, Ovarian Cancer; settings: NCI/ADR-RES
M9ENL AML cell lines = settings: 10 μM; M9ENL cell line; FIG. 4
TK-10 = experiment: NCI 60 cell line five dose, Renal Cancer
OVCAR-8 = experiment: NCI 60 cell line five dose, Ovarian Cancer
T-47D = experiment: NCI 60 cell line five dose, Breast Cancer
OVCAR-3 = experiment: NCI 60 cell line five dose, Ovarian Cancer
HS 578T = experiment: NCI 60 cell line five dose, Breast Cancer; settings: HS 578T
MDA-MB-468 = experiment: NCI 60 cell line five dose, Breast Cancer
LOX IMVI = experiment: NCI 60 cell line five dose, Melanoma
HOP-92 = experiment: NCI 60 cell line five dose, Non-Small Cell Lung Cancer
SN12C = experiment: NCI 60 cell line five dose, Renal Cancer
NCI-H226 = experiment: NCI 60 cell line five dose, Non-Small Cell Lung Cancer
A549/ATCC = experiment: as above
SF-295 = experiment: NCI 60 cell line five dose, CNS Cancer
DU-145 = experiment: NCI 60 cell line five dose, Prostate Cancer
MCF7 = experiment: NCI 60 cell line five dose, Breast Cancer
SK-MEL-2 = experiment: NCI 60 cell line five dose, Melanoma
MOLT-4 = experiment: NCI 60 cell line five dose, Leukemia
HT29 = experiment: NCI 60 cell line five dose, Colon Cancer
NCI-H23 = experiment: NCI 60 cell line five dose, Non-Small Cell Lung Cancer
786-0 = experiment: NCI 60 cell line five dose, Renal Cancer
M14 = experiment: NCI 60 cell line five dose, Melanoma
RXF 393 = experiment: NCI 60 cell line five dose, Renal Cancer

## C=C1C(=O)O[C@H]2[C@H]1CC/C(COC(=O)CCC(=O)NCCCCCCCCCNC(=O)CCC(=O)OC/C1=C/CC[C@@]3(C)O[C@H]3[C@H]3OC(=O)C(=C)[C@@H]3CC1)=C\CC[C@@]1(C)O[C@@H]21 [JVM 2-92, bis(((1aR,7aS,10aS,10bS,E)-1a-Methyl-8-methylene-9-oxo-1a,2,3,6,7,7a,8,9,10a,10b-decahydrooxireno[2′,3′:9,10]cyclodeca[1,2-b]furan-5-yl)methyl)4,4′-(nonane-1,9-diylbis(azanediyl))bis (4-oxobutanoate)]
NCI/ADR-RES
  GI50: 26.7 µM
  TGI: >100 µM
M9ENL AML cell lines
  result compared to parthenolide: promising result
TK-10
  GI50: 1.78 µM
  TGI: 3.28 µM
OVCAR-8
  GI50: 3.24 µM
  TGI: 16.5 µM
T-47D
  GI50: 1.49 µM
  TGI: 4.48 µM
OVCAR-3
  GI50: 1.29 µM
  TGI: 2.61 µM
HS 578T
  GI50: 2.99 µM
  TGI: 24.9 µM
MDA-MB-468
  GI50: 0.98 µM
  TGI: 2.64 µM
LOX IMVI
  GI50: 0.37 µM
  TGI: 1.36 µM
HOP-92
  GI50: 1.4 µM
  TGI: 3.05 µM
NCI-H322M
  CC50: 61.3 µM
SN12C
  GI50: 2.69 µM
  TGI: 10.3 µM
NCI-H226
  GI50: 1.9 µM
  TGI: 4.05 µM
A549/ATCC
  GI50: 13.8 µM
  TGI: 33.7 µM
SF-295
  GI50: 7.68 µM
  TGI: 21.9 µM
DU-145
  GI50: 1.75 µM
  TGI: 3.18 µM
MCF7
  GI50: 0.42 µM
  TGI: 1.85 µM
SK-MEL-2
  GI50: 2.12 µM
  TGI: 4.15 µM
MOLT-4
  GI50: 0.64 µM
  TGI: 4.20 µM
HT29
  GI50: 1.33 µM
  TGI: 2.75 µM
NCI-H23
  GI50: 2.23 µM
  TGI: 5.13 µM
HL-60(TB)
  GI50: 0.44 µM
  TGI: 2.13 µM
HL-60(TB); read-out: LC50
  CC50: > 100 µM
786-0
  GI50: 1.49 µM
  TGI: 3.00 µM
M14
  GI50: 1.65 µM
  TGI: 3.64 µM
RXF 393
  GI50: 1.01 µM
  TGI: 2.50 µM

Reference: patent US10118935B2, “Melampomagnolide B dimers” (priority 2014, dated 2018)
